Source: patent publication US20220259556A1, “METHOD FOR OBTAINING IMMUNO-SUPPRESSIVE DENDRITIC CELLS” (Transimmune AG, priority 2013, published 2022)
Entries after “also recorded” stand apart in the source; their conditions may differ. Ends that are not written are not given here.

Legend:
platelets = experiment: Platelet adhesion studies in Vena8 flow chamber; assay type: cell-based, human
Description: For experiments not involving the collection and phenotyping of cells post-flow, Vena8 biochips (Cellix Ltd, Dublin, Ireland) were used to generate laminar flow. The volumetric flow path for a channel of the Vena8 biochips measured 20000×400×100 microns (length×width×height). Protein coating of these chips is described in the appropriate section below.
Platelet adhesion experiments were performed using the Vena8 flow chamber described above. Fibrinogen and fibronectin (Sigma) were dissolved in PBS to a final concentration of 200 mcg/ml. Channels of the Vena8 chips were incubated at room temperature in a humidified chamber for 2 hours with the protein solution, autologous plasma, or PBS alone. The channels were washed with 5× the volume RPMI. Platelet-rich-plasma was then perfused through the protein-coated channel at the indicated shear-stress, held constant. For each channel, still images were acquired exactly 90 seconds into the experiment at 4 pre-defined low power fields located along the flow path (fields were centered at 2500, 7500, 12500, and 17500 microns from the start point of infusion).
Some experiments involved pre-treating platelet-rich-plasma with protein fragments prior to infusion through the channels. Small RGD peptides, containing the amino-acid sequence Arg-Gly-Asp-Ser; DRG peptides, contain the amino-acid sequence Ser-Asp-Gly-Arg; or fragment 400-411 of fibrinogen, containing the amino-acid sequence His-His-Leu-Gly-Gly-Ala-Lys-Gln-Ala-Gly-Asp-Val, were incubated at a concentration of 2 mM with PRP for 20 minutes at room temperature. The PRP was then perfused through the channels as previously described.

MoDC = experiment: Immunophenotyping of MoDC (HLA-DR, CD80, CD83, CD86, intracellular GILZ); assay type: cell-based, human; conditions: product of 8-MOP and UVA exceeded 100; 24 hr after PUVA
Description: (§1) Lymphocytes were treated with 8-MOP (100 ng/mL) and UVA (1 J/cm^2), washed with PBS, and co-cultured in complete media at 37° C. and 5% CO2 with either PUVA-treated or untreated-MoDC in a ratio of 5 or 10 lymphocytes to 1 MoDC. MoDC treated for 24 hr with 100 nM dexamethasone (Sigma) served as the positive control group. After 24 hr, cells were harvested and MoDC were re-purified. […] CD11c^+ MoDC were re-plated at 0.5-1.0×10^6 cells/mL in complete media and stimulated with 100 ng/mL LPS (Sigma). 24 hr after LPS stimulation, cells were harvested for RNA isolation and immunophenotyping, and supernatants were collected for cytokine quantification.
Monoclonal antibodies included HLA-DR, CD80, CD83, CD3, CD86, CD14, CD11c and GILZ. Antibodies were obtained from Beckman-Coulter and eBioscience and were used at their pre-determined optimal dilutions. Apoptosis was assessed using the Annexin-V Apoptosis Detection Kit (eBioscience), with Annexin-V recognizing phosphatidylserine (PS) on the surface of apoptotic cells. 7-AAD substituted for PI as the cell viability dye. Cells displaying an Annexin-V^+/7-AAD^− phenotype were classified as early apoptotic cells, and cells displaying an Annexin-V^+/7-AAD^+ phenotype were classified as late apoptotic cells. Dual membrane and intracytoplasmic staining was performed using the IntraPrep fix and permeabilization kit (Beckman-Coulter). Background staining was established with appropriate isotype and fluorescence minus one controls. Immunofluorescence was analyzed using a FACSCalibur L (BD Biosciences) within 2 hr of fixation with 2% paraformaldehyde. A minimum of 10,000 events were collected for each group.

lymphocytes = experiment: Apoptosis of lymphocytes (Annexin-V/7-AAD); assay type: cell-based, human; conditions: 1 J/cm^2 and 100 ng/mL
Description: as §1
Monoclonal antibodies included HLA-DR, CD80, CD83, CD3, CD86, CD14, CD11c and GILZ. Antibodies were obtained from Beckman-Coulter and eBioscience and were used at their pre-determined optimal dilutions. Apoptosis was assessed using the Annexin-V Apoptosis Detection Kit (eBioscience), with Annexin-V recognizing phosphatidylserine (PS) on the surface of apoptotic cells. 7-AAD substituted for PI as the cell viability dye. […] Background staining was established with appropriate isotype and fluorescence minus one controls. Immunofluorescence was analyzed using a FACSCalibur L (BD Biosciences) within 2 hr of fixation with 2% paraformaldehyde. […]

GILZ = GILZ expression in plate-passed PBMC treated with 8-MOP and UVA; assay type: cell-based; conditions: monocytes physically activated by passage through device, then 8-MOP and UVA
Description: Monocytes were passed through a device derived from the Therakos system. The dimensions of the flow chamber were 30 mm width, 1600 mm length, and 1 mm height. In brief, a blood sample was spun at low speed through a Ficoll gradient to obtain e.g. 80 ml of sample with a concentration of peripheral blood mononuclear cells (PBMC) of e.g. 1.5*10^6 cells/ml. The chamber was pre-coated with platelets. The sample was passed through the chamber for 60 min at a flow rate of about 24 ml/min corresponding to a shear stress of about 0.13 Pa. The collected activated monocytes were spun at low speed and resuspended in a small volume of medium comprising 8-MOP and irradiated with […], incubated for a day and used for further analysis (Day 1PBMC+PP). As a control PBMCs were not passed through the device and incubated for a day (Day 1 PBMC). Further, PBMC were analyzed directly after harvest through a Ficoll gradient (Day0 PBMC). Day 1 PBMC+PP were then further treated with 8-MOP and UVA (PUVA). The cells and controls were then analyzed for expression of GILZ.

monocytes = experiment: Static co-cultures of platelets with monocytes; assay type: cell-based, human; conditions: static conditions, 18 hours
Description: Experiments involving co-cultures of monocytes with additional platelets were performed as described in the Overnight Culture section, with a few necessary modifications. Following Ficoll-Hypaque separation, mononuclear cells were resuspended in 30% AB serum/RMPI to a final concentration of 10×10^6 cells/ml, of which 1 ml was allocated to each well of a 16-well plate. An additional 1 ml of platelets (suspended in RPMI, at 2× the desired final concentration) or RPMI without platelets was then added to each well. To activate platelets, 500 μl containing 2 units of thrombin was added to half the wells, and 500 μl of RPMI was added to the others to balance the volume. Cells were then incubated as described previously.

## fibrinogen
platelets; unactivated platelets in flow, wall shear stress 0.2 to 6.0 dyne/cm^2
  Platelet adhesion to plates pre-coated with the protein: highest concentrations of platelets adhered

## COc1c2occc2cc2ccc(=O)oc12 [8-MOP, 8-methoxypsoralen]
MoDC
  Reduction of CD80 cell surface expression: 30%
  Reduction of CD83 cell surface expression: 31%
  Reduction of CD86 cell surface expression: 54%
lymphocytes
  Time to Annexin-V display by lymphocytes: 2 h
GILZ
  GILZ expression / differentiation of activated monocytes: can be channeled into immuno-suppressive dendritic cells; also recorded: increase of expression of GILZ

## HHLGGAKQAGDV [fragment 400-411 of fibrinogen]
platelets; platelets (PRP) pre-incubated with 2 mM peptide for 20 minutes, flow, listed as gamma fragments
  Platelet adhesion to fibrinogen-coated plates: decreased

## thrombin
monocytes
  Monocyte differentiation versus cultures with platelets not activated by thrombin: did not cause a discernible difference

## Arg-Gly-Asp-Ser (RGDS; printed: Arg-Gly-Asp-Ser) [RGD peptides, Small RGD peptides]
platelets; platelets (PRP) pre-incubated with 2 mM peptide for 20 minutes, flow
  Platelet adhesion to fibronectin-coated plates: decreased
